Measurements from article PMC12649549, “Sequence Permutation Generated Lysine and Tryptophan-Rich Antimicrobial Peptides with Enhanced Therapeutic Index” (Antibiotics, 2025).
Like-named read-outs stand apart in the source and are kept apart here.

How the values were obtained:
Gram-negative bacteria = experiment: Geometric mean MIC and therapeutic index, Gram-negative bacteria; assay type: cell-based
Method: (§1) In this study, we aimed to investigate the potential of W5K series peptides for therapeutic use. To evaluate their efficacy for antibacterial therapy, we used the Therapeutic Index (TI) as a measure of their cell selectivity. The TI was calculated as the ratio of the concentration causing 10% hemolysis of human red blood cells (HC10) to the geometric mean minimum inhibitory concentration (GM) of the peptides against both Gram-negative and Gram-positive bacteria. This parameter was used to quantitatively assess the balance between antibacterial potency and cytotoxicity among the W5K derivatives.
(§2) The antibacterial activities of the peptides in Müller-Hinton (MH) broth and modified LYM broth were determined using the standard broth microdilution method as per Clinical and Laboratory Standards Institute (CLSI) guidelines. The LYM broth was prepared with specific components and adjusted to different conditions, including varying concentrations of NaCl and MgCl2, and different pH levels. To prepare the LYM broth, 5.4 mM KCl, 5.6 mM Na2HPO4, 0.5 mM MgSO4, and 1.0 mM sodium citrate were added. Additionally, 0.4 mg of ZnCl2, 2.0 mg of FeCl3·6H2O, 0.1 mg of CuSO4·5H2O, 0.1 mg of MnSO4·H2O, 0.1 mg of Na2B4O7∙10H2O, 700 mg of amino acid mixtures without tryptophan (Takara Bio Inc., San Jose, CA, USA), and 20 mg of L-tryptophan were added per liter of medium. The pH was adjusted to 7.4, and a vitamin mixture (100X, Sigma) and glucose concentration of 2% were added. For different conditions of LYM broth, NaCl concentrations of 300, 200, 150, and 50 mM, MgCl2 concentrations of 2.5, 1.5, and 0.5 mM, and pH levels of 6.5, 5.5, and 4.5 were adjusted. Bacterial strains were incubated in MH broth overnight, regrown, and diluted to a final concentration of 5 × 10^5 CFU/mL. Peptides were added to each well at final concentrations of 50, 25, 12.5, 6.25, 3.13, 1.56, and 0.78 µg/mL, and 99 µL of diluted microbes was loaded into each well of a polypropylene 96-well plate. […] The Morpheus HeatMap software (https://software.broadinstitute.org/morpheus/) was used to display MIC values on a color scale. All experiments were independently repeated three times.

[1] = test system: A. baumannii 14B00100 (Acinetobacter sp., BCRC number 14B0100)
Procedure, shortened: (§3)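 Broth microdilution per CLSI in Müller-Hinton broth and modified LYM broth (pH 7.4; variants with 50–300 mM NaCl, 0.5–2.5 mM MgCl2, or pH 6.5–4.5). Inoculum 5 × 10^5 CFU/mL; peptides tested at 0.78–50 µg/mL final. MIC read; three independent repeats.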

[2] = test system: A. baumannii 14B0091 (Acinetobacter sp., BCRC number 14B0091)
Procedure, shortened: as §3

S. aureus ATCC 33593 = test system: S. aureus ATCC 33593
Procedure, shortened: as §3

[3] = test system: Escherichia coli (ATCC 25922)
Procedure, shortened: as §3

[4] = test system: Pseudomonas aeruginosa Migula (ATCC 27853)
Procedure, shortened: as §3

S. aureus ATCC 33591 = test system: S. aureus ATCC 33591
Procedure, shortened: as §3

[5] = test system: Both Gram-positive and -negative bacteria; experiment: Geometric mean MIC, therapeutic index and fold changes of MIC, whole panel of strains; assay type: cell-based; settings: for weakening of antibacterial efficacy (MIC): LYM broth
Method: as §1, §2

[6] = LYM broth, 0 mM NaCl, 16 h, 37 °C
[7] = LYM broth, 50 mM NaCl, 16 h, 37 °C
[8] = LYM broth, 100 mM NaCl, 16 h, 37 °C
[9] = LYM broth, 200 mM (NaCl), 16 h, 37 °C
[10] = LYM broth, 300 mM (NaCl), 16 h, 37 °C
[11] = MH broth, 5 × 10^5 CFU/mL, 16 h, 37 °C, repeated three times

Substance: Ac-KKKKWRKWLKWLA-NH2 [Peptide W5K11]
- GM G− (geometric mean of the MIC values) (Gram-negative bacteria): 2.1 µg/mL
- Therapeutic Index (TI) G− (Gram-negative bacteria; HC10/GM, Gram-negative bacteria): 34.5
- MIC [1, 6]: 0.78 µg/mL
- MIC ([1]; LYM broth, 0.5 mM MgCl2): 1.56 µg/mL
- MIC ([1]; LYM broth, 1.5 mM MgCl2): 1.56 µg/mL
- MIC ([1]; LYM broth, 2.5 mM MgCl2): 1.56 µg/mL
- MIC [1, 7]: 0.78 µg/mL
- MIC [1, 8]: 0.78 µg/mL
- MIC [1, 9]: 0.78 µg/mL
- MIC [1, 10]: 0.78 µg/mL
- MIC ([1]; LYM broth, pH 4.5): 1.56 µg/mL
- MIC ([1]; LYM broth, pH 5.5): 1.56 µg/mL
- MIC ([1]; LYM broth, pH 6.5): 1.56 µg/mL
- MIC [1, 11]: 1.56 µg/mL
- MIC [2, 6]: 1.56 µg/mL
- MIC ([2]; LYM broth, 0.5 mM MgCl2): 1.56 µg/mL
- MIC ([2]; LYM broth, 1.5 mM MgCl2): 1.56 µg/mL
- MIC ([2]; LYM broth, 2.5 mM MgCl2): 1.56 µg/mL
- MIC [2, 7]: 1.56 µg/mL
- MIC [2, 8]: 1.56 µg/mL
- MIC [2, 9]: 1.56 µg/mL
- MIC [2, 10]: 1.56 µg/mL
- MIC ([2]; LYM broth, pH 4.5): 1.56 µg/mL
- MIC ([2]; LYM broth, pH 5.5): 1.56 µg/mL
- MIC ([2]; LYM broth, pH 6.5): 1.56 µg/mL
- MIC [2, 11]: 0.78 µg/mL
- MIC (S. aureus ATCC 33593; [6]): 3.13 µg/mL
- MIC (S. aureus ATCC 33593; LYM broth, 0.5 mM MgCl2): 3.13 µg/mL
- MIC (S. aureus ATCC 33593; LYM broth, 1.5 mM MgCl2): 3.13 µg/mL
- MIC (S. aureus ATCC 33593; LYM broth, 2.5 mM MgCl2): 3.13 µg/mL
- MIC (S. aureus ATCC 33593; [7]): 3.13 µg/mL
- MIC (S. aureus ATCC 33593; [8]): 3.13 µg/mL
- MIC (S. aureus ATCC 33593; [9]): 3.13 µg/mL
- MIC (S. aureus ATCC 33593; [10]): 6.25 µg/mL
- MIC (S. aureus ATCC 33593; LYM broth, pH 4.5): 3.13 µg/mL
- MIC (S. aureus ATCC 33593; LYM broth, pH 5.5): 1.56 µg/mL
- MIC (S. aureus ATCC 33593; LYM broth, pH 6.5): 1.56 µg/mL
- MIC (S. aureus ATCC 33593; [11]): 6.25 µg/mL
- MIC [3, 6]: 1.56 µg/mL
- MIC ([3]; LYM broth, 0.5 mM MgCl2): 3.13 µg/mL
- MIC ([3]; LYM broth, 1.5 mM MgCl2): 3.13 µg/mL
- MIC ([3]; LYM broth, 2.5 mM MgCl2): 3.13 µg/mL
- MIC [3, 7]: 1.56 µg/mL
- MIC [3, 8]: 3.13 µg/mL
- MIC [3, 9]: 3.13 µg/mL
- MIC [3, 10]: 6.25 µg/mL
- MIC ([3]; LYM broth, pH 4.5): 1.56 µg/mL
- MIC ([3]; LYM broth, pH 5.5): 1.56 µg/mL
- MIC ([3]; LYM broth, pH 6.5): 1.56 µg/mL
- MIC [3, 11]: 6.25 µg/mL
- MIC [4, 6]: 1.56 µg/mL
- MIC ([4]; LYM broth, 0.5 mM MgCl2): 1.56 µg/mL
- MIC ([4]; LYM broth, 1.5 mM MgCl2): 1.56 µg/mL
- MIC ([4]; LYM broth, 2.5 mM MgCl2): 3.13 µg/mL
- MIC [4, 7]: 1.56 µg/mL
- MIC [4, 8]: 1.56 µg/mL
- MIC [4, 9]: 3.13 µg/mL
- MIC [4, 10]: 6.25 µg/mL
- MIC ([4]; LYM broth, pH 4.5): 1.56 µg/mL
- MIC ([4]; LYM broth, pH 5.5): 1.56 µg/mL
- MIC ([4]; LYM broth, pH 6.5): 1.56 µg/mL
- MIC [4, 11]: 3.13 µg/mL
- MIC (S. aureus ATCC 33591; [6]): 3.13 µg/mL
- MIC (S. aureus ATCC 33591; LYM broth, 0.5 mM MgCl2): 3.13 µg/mL
- MIC (S. aureus ATCC 33591; LYM broth, 1.5 mM MgCl2): 3.13 µg/mL
- MIC (S. aureus ATCC 33591; LYM broth, 2.5 mM MgCl2): 3.13 µg/mL
- MIC (S. aureus ATCC 33591; [7]): 3.13 µg/mL
- MIC (S. aureus ATCC 33591; [8]): 3.13 µg/mL
- MIC (S. aureus ATCC 33591; [9]): 6.25 µg/mL
- MIC (S. aureus ATCC 33591; [10]): 6.25 µg/mL
- MIC (S. aureus ATCC 33591; LYM broth, pH 4.5): 3.13 µg/mL
- MIC (S. aureus ATCC 33591; LYM broth, pH 5.5): 3.13 µg/mL
- MIC (S. aureus ATCC 33591; LYM broth, pH 6.5): 3.13 µg/mL
- MIC (S. aureus ATCC 33591; [11]): 12.5 µg/mL
- GM G−/+ (geometric mean of the MIC values) [5]: 3.3 µg/mL
- Therapeutic Index (TI) G−/+ ([5]; HC10/GM, both Gram-positive and -negative bacteria): 21.2
- weakening of antibacterial efficacy (MIC) ([5]; 300 mM NaCl): up to 3 fold
- weakening of antibacterial efficacy (MIC) ([5]; MgCl2 rising above 0.5 mM): up to 2 fold
